Test results reported in US9034886B2, “4-aminoquinazoline derivatives and uses thereof” (Shanghai Institute of Pharmaceutical Industry, priority 2011, dated 2015).
Like-named read-outs stand apart in the source and are kept apart here.

Legend:
hERG potassium channel = hERG potassium channel (Homo sapiens (Human), UniProt Q12809); assay: Effects on hERG potassium channel; format: cell-based
[1] = tested on: PC-3 human prostate cancer; assay: In vitro anti-proliferative effect, CCK-8 method, PC-3; format: cell-based
Procedure, shortened: (§1)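 Read-out: CCK-8 viability, expressed as % inhibition; two test concentrations, 100 μM and 10 μM.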

HDACs = assay: In vitro inhibition of HDACs (HDAC Inhibitor Drug Screening Kit, Biovision K340-100); format: biochemical
Procedure: The in vitro inhibitory activities of the compounds towards HDACs were tested according to the instructions in the HDAC Inhibitor Drug Screening Kit (Biovision/Catalog #K340-100).
(1) The compounds to be tested were each individually prepared as 2 mM, 200 μM and 40 μM solutions and their inhibitory activities at these concentrations were tested.

[2] = tested on: MDA-MB-435s human breast cancer cells; assay: In vitro anti-proliferative effect, CCK-8 method, MDA-MB-435s; format: cell-based
Procedure, shortened: as §1

[3] = tested on: Jurkat E6-1 human T-cell lymphoma; assay: In vitro anti-proliferative effect, CCK-8 method, Jurkat E6-1; format: cell-based
Procedure, shortened: as §1

[4] = tested on: PANC-1 human pancreatic cancer cells; assay: In vitro anti-proliferative effect, CCK-8 method, PANC-1; format: cell-based
Procedure, shortened: as §1

[5] = tested on: K562 human chronic myelogenous leukemia cells; assay: In vitro anti-proliferative effect, CCK-8 method, K562; format: cell-based
Procedure, shortened: (§2)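 Percent growth inhibition, measured with CCK-8, in Hut78 and K562 leukemia cells at two compound concentrations, 10 μM and 100 μM.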

[6] = tested on: Hep3B2.1-7 human liver cancer cells; assay: In vitro anti-proliferative effect, CCK-8 method, Hep3B; format: cell-based
Procedure, shortened: as §1

[7] = Maximum tolerance dose through intragastrical administration; format: in vivo; details: mice, administrated intragastrically
Procedure, shortened: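 ICR mice (8˜20 g, both sexes, 10 per group) fasted 6 h, then dosed once intragastrically at 0.3 ml/10 g. Physical signs and deaths recorded at 1, 2 and 4 h, then daily with body weight over 14 days; dead animals necropsied with pathology on suspicious organs.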

[8] = tested on: Hut78 T lymphocytic leukemia cells; assay: In vitro anti-proliferative effect, CCK-8 method, Hut78; format: cell-based
Procedure, shortened: as §2

[9] = tested on: A549 human lung cancer cells; assay: In vitro anti-proliferative effect, CCK-8 method, A549; format: cell-based
Procedure, shortened: as §1

[10] = tested on: Colo320 human colorectal cancer cell lines; assay: In vitro anti-proliferative effect, CCK-8 method, Colo320; format: cell-based
Procedure, shortened: as §1

human PC-3 tumors = assay: Human PC-3 tumors transplanted in nude mice; format: in vivo; details: 50 mg/kg; for deaths, PC-3 model: 8 mice in each group
HDAC1 = HDAC1 (Homo sapiens (Human), UniProt Q13547); assay: In vitro inhibition of subtype HDAC1 (HDAC1 Inhibitor Drug Screening Kit, Biovision); format: biochemical; details: read-out: % Inhibition towards HDAC1
Procedure: The in vitro inhibitory activities of the compounds towards the subtype HDAC1 were tested according to the instructions in the HDAC1 Inhibitor Drug Screening Kit (Biovision).
(1) The compounds to be tested were each individually prepared as 10 μM and 1 μM solutions and their inhibitory activities at these concentrations were tested.
Each dilution sample was placed in two wells and the enzyme inhibition IC50 of the compound was tested.

[11] = Preliminary pharmacokinetics; details: in vivo, rat
human A549 tumors = assay: Human A549 tumors transplanted in nude mice; format: in vivo; details: nude mice, 50 mg/kg

Sequence of hERG potassium channel (Q12809 whole entry): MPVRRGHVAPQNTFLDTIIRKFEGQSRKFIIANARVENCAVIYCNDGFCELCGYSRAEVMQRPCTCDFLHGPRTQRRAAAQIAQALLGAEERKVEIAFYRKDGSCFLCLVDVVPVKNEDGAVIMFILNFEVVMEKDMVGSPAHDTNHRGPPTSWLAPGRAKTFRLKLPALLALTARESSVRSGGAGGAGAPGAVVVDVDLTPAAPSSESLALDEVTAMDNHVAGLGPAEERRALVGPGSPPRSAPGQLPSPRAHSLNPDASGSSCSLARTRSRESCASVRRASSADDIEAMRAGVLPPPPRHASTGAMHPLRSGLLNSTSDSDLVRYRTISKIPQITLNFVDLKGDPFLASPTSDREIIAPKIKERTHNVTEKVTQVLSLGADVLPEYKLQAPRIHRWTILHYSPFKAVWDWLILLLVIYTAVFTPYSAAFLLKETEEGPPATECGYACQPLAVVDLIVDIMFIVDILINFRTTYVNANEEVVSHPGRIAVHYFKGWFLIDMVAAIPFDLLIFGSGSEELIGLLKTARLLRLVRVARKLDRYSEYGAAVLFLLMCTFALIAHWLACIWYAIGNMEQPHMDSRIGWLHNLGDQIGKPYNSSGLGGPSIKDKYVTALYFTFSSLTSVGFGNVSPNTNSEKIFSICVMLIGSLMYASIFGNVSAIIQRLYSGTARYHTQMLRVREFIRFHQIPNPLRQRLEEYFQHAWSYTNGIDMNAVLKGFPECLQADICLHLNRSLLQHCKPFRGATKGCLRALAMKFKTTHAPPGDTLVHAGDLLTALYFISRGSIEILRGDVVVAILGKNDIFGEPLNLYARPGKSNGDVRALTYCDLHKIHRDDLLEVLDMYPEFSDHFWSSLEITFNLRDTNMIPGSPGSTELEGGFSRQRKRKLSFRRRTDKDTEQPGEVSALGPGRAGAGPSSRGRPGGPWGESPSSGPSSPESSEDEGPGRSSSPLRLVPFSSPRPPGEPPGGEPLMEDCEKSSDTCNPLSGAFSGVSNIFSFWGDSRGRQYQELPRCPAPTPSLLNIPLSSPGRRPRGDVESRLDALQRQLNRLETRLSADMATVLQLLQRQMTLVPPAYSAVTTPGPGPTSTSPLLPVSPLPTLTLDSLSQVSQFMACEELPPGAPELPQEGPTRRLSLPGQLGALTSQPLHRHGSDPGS
Sequence of HDAC1 (Q13547 whole entry): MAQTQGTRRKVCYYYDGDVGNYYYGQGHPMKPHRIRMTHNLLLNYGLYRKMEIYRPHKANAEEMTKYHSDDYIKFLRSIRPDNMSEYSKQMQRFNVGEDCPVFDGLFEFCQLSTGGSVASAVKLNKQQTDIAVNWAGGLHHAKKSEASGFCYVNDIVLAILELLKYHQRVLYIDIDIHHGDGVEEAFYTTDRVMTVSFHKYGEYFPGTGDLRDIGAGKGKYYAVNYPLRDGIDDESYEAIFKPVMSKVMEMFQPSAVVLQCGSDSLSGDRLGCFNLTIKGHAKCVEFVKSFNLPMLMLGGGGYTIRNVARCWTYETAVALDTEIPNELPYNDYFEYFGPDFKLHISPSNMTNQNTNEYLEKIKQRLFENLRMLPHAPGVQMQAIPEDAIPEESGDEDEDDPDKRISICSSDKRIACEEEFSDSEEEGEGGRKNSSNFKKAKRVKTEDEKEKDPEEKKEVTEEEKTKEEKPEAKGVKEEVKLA

SMILES: COc1cccc2c(Nc3ccc(C(=O)Nc4ccccc4N)cc3)ncnc12 [Compound V-9, N-(2-aminophenyl)-4-(8-methoxy-quinazoline-4-amino)benzamide]
- inhibition at 10 µM (hERG potassium channel; human, hERG potassium current, 10 μM, read-out: Maximum inhibition percentage at 10 μM (%)): 21.5 ± 0.4%
- IC50 (hERG potassium channel; read-out: Half inhibition concentration for the effect on hERG potassium current, IC50): > 10 µM
- IC50 ([1]; Homo sapiens): 12.2 µM
- inhibition at 10 µM ([1]; Homo sapiens, PC-3 cell strain, compound at 10 μM, CCK-8 method): 5.1%
- inhibition at 100 µM ([1]; Homo sapiens, PC-3 cell strain, compound at 100 μM, CCK-8 method): 19.3%
- IC50 (HDACs): 4.91 µM
- Inhibition percentage (%) towards HDACs (HDACs; 40 μM): 1.9%
- Inhibition percentage (%) towards HDACs (HDACs; 200 μM): 7.8%
- Inhibition percentage (%) towards HDACs (HDACs; 2 mM): 50.0%
- inhibition at 10 µM ([2]; Homo sapiens, MDA-MB-435S, 10 μM): -11.9%
- inhibition at 100 µM ([2]; Homo sapiens, MDA-MB-435S, 100 μM): 11.8%
- IC50 ([3]; Homo sapiens, Jurkat E6.1): 12.4 µM
- inhibition at 10 µM ([3]; Homo sapiens, Jurkat E6.1, 10 μM): 0.9%
- inhibition at 100 µM ([3]; Homo sapiens, Jurkat E6.1, 100 μM): 22.8%
- inhibition at 10 µM ([4]; Homo sapiens, PANC-1, 10 μM): 22.3%
- inhibition at 100 µM ([4]; Homo sapiens, PANC-1, 100 μM): 26.4%
- IC50 ([5]; Homo sapiens, K562): 19.9 µM
- inhibition at 10 µM ([5]; Homo sapiens, K562, 10 μM): -2.8%
- inhibition at 100 µM ([5]; Homo sapiens, K562, 100 μM): 30.3%
- IC50 ([6]; Homo sapiens, Hep3B): 52.2 µM
- inhibition at 10 µM ([6]; Homo sapiens, Hep3B cell strain, compound at 10 μM, CCK-8 method): 27%
- inhibition at 100 µM ([6]; Homo sapiens, Hep3B cell strain, compound at 100 μM, CCK-8 method): 26.2%
- maximum tolerance dose [7]: over 5000 mg/kg
- IC50 ([8]; Homo sapiens, HuT78): 0.231 µM
- inhibition at 10 µM ([8]; Homo sapiens, HuT78, 10 μM, read-out: Hut-78 (inhibition %)): 10.8%
- inhibition at 100 µM ([8]; Homo sapiens, HuT78, 100 μM, read-out: Hut-78 (inhibition %)): 94%
- IC50 ([9]; Homo sapiens, A549): 29.9 µM
- inhibition at 10 µM ([9]; Homo sapiens, A549, 10 μM): 24.6%
- inhibition at 100 µM ([9]; Homo sapiens, A549, 100 μM): 42.3%
- IC50 ([10]; Homo sapiens, COLO 320): 88.4 µM
- inhibition at 10 µM ([10]; Homo sapiens, COLO 320, Colo320 cell strain, compound at 10 μM, CCK-8 method): 4.4%
- inhibition at 100 µM ([10]; Homo sapiens, COLO 320, Colo320 cell strain, compound at 100 μM, CCK-8 method): 4.2%
- tumor inhibition %, PC-3 (human prostate cancer) (human PC-3 tumors): 36.97%
- deaths, PC-3 model (human PC-3 tumors): no death
- inhibition at 1 µM (HDAC1; 1 μM): 33.8%
- inhibition at 10 µM (HDAC1; 10 μM): 58.3%
- half-life ([11]; iv, 2 mg/kg, i.v., read-out: Intravenous half-life (converted)): 1.27 h
- bioavailability ([11]; oral): 19%
- half-life ([11]; oral, read-out: Oral half-life (converted)): 4.53 h

SMILES: Nc1ccccc1NC(=O)c1ccc(CNC(=O)OCc2cccnc2)cc1 [MS-275, reference compound]
- IC50 [1]: 0.502 µM
- PC-3 (inhibition %) 10 μM ([1]; PC-3 cell strain, compound at 10 μM, CCK-8 method): 12.5%
- PC-3 (inhibition %) 100 μM ([1]; PC-3 cell strain, compound at 100 μM, CCK-8 method): 71.5%
- IC50 (HDACs): 3.52 µM
- Inhibition percentage (%) towards HDACs (HDACs; 40 μM): 32.5%
- Inhibition percentage (%) towards HDACs (HDACs; 200 μM): 60.5%
- Inhibition percentage (%) towards HDACs (HDACs; 2 mM): 82.2%
- 435s (inhibition %) ([2]; 10 μM): 2.7%
- 435s (inhibition %) ([2]; 100 μM): 59.3%
- IC50 [3]: 0.561 µM
- Jurkat E6-1 (inhibition %) ([3]; 10 μM): 89.5%
- Jurkat E6-1 (inhibition %) ([3]; 100 μM): 96.1%
- PANC-1 (inhibition %) ([4]; 10 μM): 12.4%
- PANC-1 (inhibition %) ([4]; 100 μM): 31.6%
- tumor inhibition %, A549 (lung cancer) (human A549 tumors): 79.41%
- deaths, A549 model (human A549 tumors; 8 mice in each group): 3
- K562 (inhibition %) ([5]; 10 μM): 66.2%
- K562 (inhibition %) ([5]; 100 μM): 74.6%
- IC50 [6]: 6.82 µM
- Hep3B (inhibition %) 10 μM ([6]; Hep3B cell strain, compound at 10 μM, CCK-8 method): 10.8%
- Hep3B (inhibition %) 100 μM ([6]; Hep3B cell strain, compound at 100 μM, CCK-8 method): 52.1%
- IC50 [8]: 0.528 µM
- Hut-78 (inhibition %) ([8]; 100 μM): 85.3%
- IC50 [9]: 2.28 µM
- A549 (inhibition %) ([9]; 10 μM): 58.9%
- A549 (inhibition %) ([9]; 100 μM): 92.3%
- IC50 [10]: 0.522 µM
- Colo320 (inhibition %) 10 μM ([10]; Colo320 cell strain, compound at 10 μM, CCK-8 method): 18.0%
- Colo320 (inhibition %) 100 μM ([10]; Colo320 cell strain, compound at 100 μM, CCK-8 method): 61.6%
- tumor inhibition %, PC-3 (human prostate cancer) (human PC-3 tumors): 89.60%
- deaths, PC-3 model (human PC-3 tumors): 4
